pIC50: −log10 of the molar value.
Target: KDM3B (Homo sapiens, UniProt Q7LBC6)
Experiment: competitive inhibition of purified recombinant KDM3B
Format: biochemical

Chain of KDM3B (Q7LBC6 whole entry): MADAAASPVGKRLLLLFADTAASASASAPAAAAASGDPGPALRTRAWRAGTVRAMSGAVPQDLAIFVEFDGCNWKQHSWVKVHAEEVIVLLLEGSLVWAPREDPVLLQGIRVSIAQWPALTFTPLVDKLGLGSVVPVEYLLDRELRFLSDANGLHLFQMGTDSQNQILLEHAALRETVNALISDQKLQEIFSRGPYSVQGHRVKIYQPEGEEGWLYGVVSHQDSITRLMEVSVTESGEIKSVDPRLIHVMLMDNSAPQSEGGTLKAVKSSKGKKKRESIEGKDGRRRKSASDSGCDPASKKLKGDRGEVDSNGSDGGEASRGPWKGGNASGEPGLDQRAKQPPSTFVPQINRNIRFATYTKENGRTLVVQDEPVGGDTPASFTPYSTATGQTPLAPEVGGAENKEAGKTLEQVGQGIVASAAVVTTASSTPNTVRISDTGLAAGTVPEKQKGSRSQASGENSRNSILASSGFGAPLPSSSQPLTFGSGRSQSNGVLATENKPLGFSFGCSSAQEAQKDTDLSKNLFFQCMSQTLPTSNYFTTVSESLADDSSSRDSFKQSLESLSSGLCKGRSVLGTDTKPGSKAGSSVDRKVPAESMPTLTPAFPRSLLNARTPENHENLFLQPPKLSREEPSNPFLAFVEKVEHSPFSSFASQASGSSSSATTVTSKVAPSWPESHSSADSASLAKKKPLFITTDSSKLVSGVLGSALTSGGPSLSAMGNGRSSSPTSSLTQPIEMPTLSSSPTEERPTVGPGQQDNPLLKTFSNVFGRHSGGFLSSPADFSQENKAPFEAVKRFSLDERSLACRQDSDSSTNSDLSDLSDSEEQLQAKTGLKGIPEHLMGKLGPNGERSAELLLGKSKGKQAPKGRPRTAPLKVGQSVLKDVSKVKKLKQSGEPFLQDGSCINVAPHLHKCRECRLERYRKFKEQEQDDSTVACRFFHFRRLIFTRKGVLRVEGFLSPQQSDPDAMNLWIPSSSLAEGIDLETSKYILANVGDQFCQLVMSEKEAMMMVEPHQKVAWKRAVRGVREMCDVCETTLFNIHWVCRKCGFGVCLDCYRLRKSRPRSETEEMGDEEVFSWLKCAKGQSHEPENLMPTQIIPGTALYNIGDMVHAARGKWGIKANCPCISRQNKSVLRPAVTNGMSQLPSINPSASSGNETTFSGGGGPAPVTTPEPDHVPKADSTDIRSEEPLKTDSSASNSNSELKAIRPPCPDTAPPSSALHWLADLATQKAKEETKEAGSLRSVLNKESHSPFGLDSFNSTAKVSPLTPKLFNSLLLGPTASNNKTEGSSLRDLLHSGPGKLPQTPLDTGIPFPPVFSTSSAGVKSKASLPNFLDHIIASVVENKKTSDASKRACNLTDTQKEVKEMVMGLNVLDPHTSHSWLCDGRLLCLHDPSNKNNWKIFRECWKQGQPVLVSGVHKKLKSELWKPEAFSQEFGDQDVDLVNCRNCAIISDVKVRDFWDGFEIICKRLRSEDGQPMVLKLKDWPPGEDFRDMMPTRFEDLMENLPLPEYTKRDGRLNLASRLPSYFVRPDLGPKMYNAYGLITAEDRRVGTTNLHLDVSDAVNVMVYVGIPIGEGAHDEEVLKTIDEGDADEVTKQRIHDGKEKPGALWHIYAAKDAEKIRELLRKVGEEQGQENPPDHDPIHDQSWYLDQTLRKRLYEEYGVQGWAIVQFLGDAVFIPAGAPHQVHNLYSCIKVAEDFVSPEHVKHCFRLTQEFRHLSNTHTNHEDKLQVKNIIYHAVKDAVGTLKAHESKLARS

- pIC50: ~2.61
SMILES: O=C(O)CCC(O)C(=O)O (stereo not shown) [R-2HG]
